{
  "source": "patent US20230000808A1",
  "about": "“COMPOSITIONS AND METHODS EXCLUDING OR WITH REDUCED GLUTAMINE FOR THE TREATMENT OF HEMOGLOBINOPATHIES AND THALASSEMIAS” (AXCELLA HEALTH INC., priority 2019, published 2023)",
  "key": {"IL-6": {"tested_on": "IL-6", "assay": "LPS-induced IL-6 secretion in primary human monocyte-derived macrophages (ELISA)", "format": "cell-based", "set-up": "Donor 1 IL-6 Measurements Mean: unit not given here", "conditions": "for Donor 1 IL-6 Measurements Mean / Donor 2 IL-6 Measurements Mean / Donor 3 IL-6 Measurements Mean: LPS, baseline subtracted; for effect on LPS-induced IL-6 secretion: Two Way ANOVA Dunnett", "method": "Primary human PMBC derived macrophages were seeded on day 0 at 3.0×10^4 cells per well in 96-well microplates (ThermoFisher) in Dulbecco's Modified Eagle Medium (DMEM) (Gibco) supplemented with penicillin-streptomycin (Hyclone) and 10% heat inactivated fetal bovine serum (HI-FBS) (Atlanta Bio) and incubated overnight at 37° C., 5% CO2. On day 1, cells were washed once with 150 μl per well DPBS (Gibco) and treated with 75 μl of: • a. […] The same medium described above with one amino acid at various concentrations including complete dropout. […] On day 3, the supernatant was collected and immediately frozen in −80° C. freezer. Cells were washed once with 150 μl DPBS and viability was assessed using the WST-8 Cell Proliferation Cytotoxicity Assay (Dojindo). […] Protein levels in supernatant samples were analyzed by ELISA for IL-6 and TNFα using commercially available kits (R&D Systems) according to manufacturer-supplied protocols."}, "[1]": {"tested_on": "sickle cell disease patient blood", "assay": "ROS (DCF fluorescence) in sickle cell disease patient whole blood", "format": "cell-based, human", "conditions": "both treated with H2O2 and untreated, in DPBS", "method": "Whole blood samples were appropriately diluted in Ca^2+- and Mg^2+-free Dulbecco's phosphate buffered saline (DPBS, Life Technologies) and the concentration of erythrocytes (RBC/mL) was measured on a Cellometer K2 Fluorescent Viability Cell Counter according to the manufacturer's RBC/AOPI protocol (Nexcelom Biosciences).\nCells were then diluted to 1×10^6 RBC/mL into either prewarmed 37° C. […] 2′-7′-dichlorofluorescin diacetate (DCF, Millipore Sigma), 20 mM in dimethyl sulfoxide (DMSO, Fisher) were added to a working concentration of 100 μM. Cells were incubated with dye for 15 minutes at 37° C., 5% CO2 in a tissue culture incubator, washed once, and resuspended in the 0.9 volumes of the same prewarmed 37° C. buffer with 5 minute spins at 500×g, accel/decal=5 in a swing arm centrifuge (Beckman Coulter). […] Where possible due to solubility constrains, pH-7.4-adjusted stock solutions of amino acids were used. Wells were mixed by pipetting and plates incubated at 37° C., 5% CO2 in a tissue culture incubator for 30 minutes. Optionally, 40 mM H2O2 (Millipore Sigma) freshly prepared in the same buffer was added to bring the concentration to 2 mM, wells mixed by pipetting, and plates were incubated an additional 30, 60, 120, or 240 minutes before fluorescence measurement of ROS signal on a Synergy H4 (BioTek) microplate reader with excitation=488 nm and emission=530 nm, and gain either set to autogain, 75, or 100."}, "[2]": {"tested_on": "RBCs of healthy whole blood", "assay": "RBC deformability (Elongation Index, LORRCA ektacytometry), ex vivo TBHP oxidation of healthy whole blood", "format": "cell-based, human", "conditions": "for EI over vehicle control, both ½ EImax and EImax: healthy donor 2, single amino acid treatments", "description": "Whole blood from healthy African American and/or Hispanic donors was obtained from Research Blood Components, LLC based on the following donor selection criteria: Adult age (between 18 and 50 years), normal BMI (<30), and absence of other confounding clinical conditions. Whole blood from SCD donors were obtained from BioIVT based on the following donor selection criteria: Patients with genotypes HbSS, HbSC, HbS/β^0 and at least 1-2 months gap since last blood transfusion. Whole blood was shipped on ice on the same day as blood draw. Upon receipt, the blood sample was aliquoted and stored in the refrigerator until used for studies.\nRBC deformability measurements were conducted with the Laser Optical Rotational Red Cell Analyzer (LORRCA) from RR Mechatronics in a temperature-controlled environment (37° C.). Briefly, an even layer of RBCs suspended in polyvinylpyrrolidone (PVP) is subjected to shear stress gradient (0.3 to 30 Pa) through two concentric cylinders and the resulting changes in RBC shape or deformability are measured by a laser beam diffraction pattern. The captured images of RBC shape in response to increasing shear stress are then analyzed by the LORRCA program to calculate Elongation Index (EI).\nHealthy RBCs have higher deformability ≥0.5 EI and SCD RBCs have lower deformability or EI values as studied by LORRCA ektacytometry in the field. […] The induced hemolysis model in this disclosure involves use of tert-butyl hydroperoxide (TBHP) to lower EI of RBCs.\nThe ex vivo hemolysis study disclosed here involves overnight treatment of whole blood with vehicle as a control and specific amino acids followed by rapid oxidation (5 min) with TBHP. Method for oxidation of whole blood with tert-butyl hydroperoxide has been used in prior literature (Diederich L, et al, Front Physiol. 2018 May 11; 9:332). RBC deformability or shape changes are then measured with LORRCA ektacytometry.\nWhole blood aliquots stored in the fridge were brought up to room temperature while gently shaking on a rocker at low speed for an hour to ensure gradual and uniform suspension of red blood cells prior to deformability measurements. Vehicle control used in the study was 1× Dulbecco's […]) and amino acids disclosed herein were added (at either final 10× or 2.5 mM concentration as indicated) to corresponding vehicle and amino acid treatment conditions. The samples were then incubated overnight at 37° C. The next day, 25 μl of whole blood was taken from each treatment condition and added to 5 mL Elon ISO viscous solution from RR Mechatronics. The sample was inverted 15-20 times to ensure proper mixing of the treated RBCs with the Elon ISO solution followed by loading the sample on LORRCA and capturing RBC deformability or shape measurements over the applied shear gradient. The remaining whole blood treatments were returned to incubator (37° C.) until deformability measurements were completed for all treatments. To the remaining whole blood treatment samples, TBHP solution (5.0-6.0 M in Decane, Sigma) was added at 2.5 mM final concentration from a 100 mM freshly prepared stock and incubated for further 5 min at 37° C. 25 μl of this TBHP-treated sample was immediately removed at the end of the 5 min incubation and added to the Elon ISO solution for RBC deformability measurement after oxidation. Included in the Tables 13-15 are EI measurements at ½ EImax shear stress 1.69 Pa and EImax shear stress 30 Pa from these studies and FIG. 1 captures EI measurements for all shear stress points for the indicated treatment conditions."}},
  "data": [
    {"compound": "CC(=O)N[C@@H](CS)C(=O)O", "note": "[N-Acetyl Cysteine, N-acetylcysteine]", "values": [
      {"measurement": "Donor 1 IL-6 Measurements Mean", "setting": "IL-6; Donor 1, Conc. 0 X (baseline)", "result": 0},
      {"measurement": "Donor 1 IL-6 Measurements Mean", "setting": "IL-6; Donor 1, Conc. 5 X", "result": 308.1772},
      {"measurement": "Donor 1 IL-6 Measurements Mean", "setting": "IL-6; Donor 1, Conc. 10 X", "result": "−121.142"},
      {"measurement": "Donor 1 IL-6 Measurements Mean", "setting": "IL-6; Donor 1, Conc. 20 X", "result": "−553.802"},
      {"measurement": "Donor 1 IL-6 Measurements Mean", "setting": "IL-6; Donor 1, Conc. 40 X", "result": "−914.194"},
      {"measurement": "effect on LPS-induced IL-6 secretion", "setting": "IL-6; Donor 1", "result": "significantly reduced"},
      {"measurement": "Donor 2 IL-6 Measurements Mean", "setting": "IL-6; Donor 2, Conc. 0 X (baseline)", "result": "−2.4E−15"},
      {"measurement": "Donor 2 IL-6 Measurements Mean", "setting": "IL-6; Donor 2, Conc. 5 X", "result": "−0.7946"},
      {"measurement": "Donor 2 IL-6 Measurements Mean", "setting": "IL-6; Donor 2, Conc. 10 X", "result": "−9.751"},
      {"measurement": "Donor 2 IL-6 Measurements Mean", "setting": "IL-6; Donor 2, Conc. 20 X", "result": "−24.9999"},
      {"measurement": "Donor 2 IL-6 Measurements Mean", "setting": "IL-6; Donor 2, Conc. 40 X", "result": "−33.7585"},
      {"measurement": "effect on LPS-induced IL-6 secretion", "setting": "IL-6; Donor 2", "result": "significantly reduced"},
      {"measurement": "Donor 3 IL-6 Measurements Mean", "setting": "IL-6; Donor 3, Conc. 0 X (baseline)", "result": "−9.5E−15"},
      {"measurement": "Donor 3 IL-6 Measurements Mean", "setting": "IL-6; Donor 3, Conc. 5 X", "result": "−70.3269"},
      {"measurement": "Donor 3 IL-6 Measurements Mean", "setting": "IL-6; Donor 3, Conc. 10 X", "result": "−103.586"},
      {"measurement": "Donor 3 IL-6 Measurements Mean", "setting": "IL-6; Donor 3, Conc. 20 X", "result": "−122.656"},
      {"measurement": "Donor 3 IL-6 Measurements Mean", "setting": "IL-6; Donor 3, Conc. 40 X", "result": "−140.851"},
      {"measurement": "effect on LPS-induced IL-6 secretion", "setting": "IL-6; Donor 3", "result": "significantly reduced"},
      {"measurement": "ROS measured in whole blood", "setting": "[1]", "result": "reduced"},
      {"measurement": "EI over vehicle control, both ½ EImax and EImax", "setting": "[2]", "result": "higher than the vehicle"}
    ]},
    {"compound": "NC(=O)CC[C@H](N)C(=O)O", "note": "[Glutamine, L-glutamine]", "values": [
      {"measurement": "Donor 1 IL-6 Measurements Mean", "setting": "IL-6; Donor 1, Conc. 749 μM (baseline)", "result": 0},
      {"measurement": "Donor 1 IL-6 Measurements Mean", "setting": "IL-6; Donor 1, Conc. 3747 μM", "result": 291.5443},
      {"measurement": "Donor 1 IL-6 Measurements Mean", "setting": "IL-6; Donor 1, Conc. 11242 μM", "result": 397.1745},
      {"measurement": "Donor 1 IL-6 Measurements Mean", "setting": "IL-6; Donor 1, Conc. 22484 μM", "result": 440.1437},
      {"measurement": "effect on LPS-induced IL-6 secretion", "setting": "IL-6; Donor 1", "result": "increased"},
      {"measurement": "Donor 2 IL-6 Measurements Mean", "setting": "IL-6; Donor 2, Conc. 749 μM (baseline)", "result": "2.37E−15"},
      {"measurement": "Donor 2 IL-6 Measurements Mean", "setting": "IL-6; Donor 2, Conc. 3747 μM", "result": 22.52},
      {"measurement": "Donor 2 IL-6 Measurements Mean", "setting": "IL-6; Donor 2, Conc. 11242 μM", "result": 63.31},
      {"measurement": "Donor 2 IL-6 Measurements Mean", "setting": "IL-6; Donor 2, Conc. 22484 μM", "result": 34.39},
      {"measurement": "effect on LPS-induced IL-6 secretion", "setting": "IL-6; Donor 2", "result": "increased"},
      {"measurement": "Donor 3 IL-6 Measurements Mean", "setting": "IL-6; Donor 3, Conc. 749 μM (baseline)", "result": "3.79E−14"},
      {"measurement": "Donor 3 IL-6 Measurements Mean", "setting": "IL-6; Donor 3, Conc. 3747 μM", "result": 25.35},
      {"measurement": "Donor 3 IL-6 Measurements Mean", "setting": "IL-6; Donor 3, Conc. 11242 μM", "result": 98.4903},
      {"measurement": "Donor 3 IL-6 Measurements Mean", "setting": "IL-6; Donor 3, Conc. 22484 μM", "result": 108.5158},
      {"measurement": "effect on LPS-induced IL-6 secretion", "setting": "IL-6; Donor 3", "result": "significantly increased"},
      {"measurement": "effectiveness among all treatment groups, EI and fold change relative to vehicle", "setting": "[2]; healthy donor 2", "result": "least effective"},
      {"measurement": "EI over vehicle control, both ½ EImax and EImax", "setting": "[2]", "result": "higher than the vehicle"}
    ]}
  ]
}
